Consider 27 molecules from patent publication US12286442B2, “Methods and materials for increasing transcription factor eb polypeptide levels” (University of Pittsburgh—Of the Commonwealth System of …, priority 2019, dated 2025).

The test system of series [1] is BEAS-2B cells. In words: Toxicity: compound concentration needed to induce greater than 50 percent of cell loss. It counts as cell-based, human. The note with it: 18 hours incubation. Put shortly: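 BEAS-2B cells stably expressing TFEB-EGFP treated with serial compound dilutions for 18 h, then PFA-fixed, DAPI-stained and imaged. Toxicity scored as the concentration causing >50% cell loss, binned as ≥25 μM, <25 and >1 μM, or ≤1 μM ("+++").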

Series [2] has as its system TFEB. Briefly: High content screen measuring TFEB nuclear accumulation (TFEB nuclear/cytosol ratio) in BEAS-2B cells stably expressing TFEB-EGFP. It counts as cell-based, human. The note with it: 18 hours incubation. Put shortly: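 BEAS-2B cells stably expressing TFEB-EGFP (~2300–2500 per well) pre-incubated 8 hours, then exposed to serially diluted compounds (DMEM low glucose, 2% FBS) for 18 hours, PFA-fixed and DAPI-stained. Imaged nuclear (DAPI mask) vs cytosolic (expanded mask) TFEB-GFP; activity = minimal concentration raising nuclear/cytosol ratio by 25%.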

For the molecule `CC(C)(C)c1cc2cc(Nc3nc(-c4ccncc4)nc4ccccc34)ccc2[nH]1` [Compound 74], in series [1], the “toxicity (compound concentration needed to induce greater than 50 percent of cell loss)” value is “++ (cell loss of greater than 50 percent at a concentration less than 25 μM and greater than 1 μM was represented as)”. Further, the “efficacy (minimal compound concentration needed to increase TFEB nuclear/cytosol ratio by 25%)” value in series [2] was “+++ (“+++” equals ≤1 μM)”.

As to `C1=C(c2nc(Nc3ccc4[nH]ncc4c3)c3ccccc3n2)CCNC1` [Compound 75], the “toxicity (compound concentration needed to induce greater than 50 percent of cell loss)” value in series [1] is on record as “+ (cell loss of greater than 50 percent at a concentration that equals or is greater than 25 μM was represented as)”. In addition, the “efficacy (minimal compound concentration needed to increase TFEB nuclear/cytosol ratio by 25%)” value in series [2] is “+ (“+” equals >25 μM)”.

Consider `c1ccc2c(Nc3ccc4[nH]ncc4c3)nc(C3CCNCC3)nc2c1` [Compound 76], for which, in series [1], the “toxicity (compound concentration needed to induce greater than 50 percent of cell loss)” value is given as “+ (cell loss of greater than 50 percent at a concentration that equals or is greater than 25 μM was represented as)”. In addition, the “efficacy (minimal compound concentration needed to increase TFEB nuclear/cytosol ratio by 25%)” value in series [2] is “+ (“+” equals >25 μM)”.

On to `c1ccc2c(Nc3ccc4[nH]ncc4c3)nc(-c3cncs3)nc2c1` [Compound 77], for which the “toxicity (compound concentration needed to induce greater than 50 percent of cell loss)” value in series [1] was “+ (cell loss of greater than 50 percent at a concentration that equals or is greater than 25 μM was represented as)”. For the same molecule, in series [2], the “efficacy (minimal compound concentration needed to increase TFEB nuclear/cytosol ratio by 25%)” value is reported as “+++ (“+++” equals ≤1 μM)”.

Turning to `c1ccc2c(Nc3ccc4[nH]ccc4c3)nc(-c3cncs3)nc2c1` [Compound 78], the “toxicity (compound concentration needed to induce greater than 50 percent of cell loss)” value in series [1] is “+ (cell loss of greater than 50 percent at a concentration that equals or is greater than 25 μM was represented as)”. In addition, the “efficacy (minimal compound concentration needed to increase TFEB nuclear/cytosol ratio by 25%)” value in series [2] was “++ (“++” equals between ≤25 μM and >1 μM)”.

For `Fc1cccc(Nc2nc(-c3cncs3)nc3ccccc23)c1` [Compound 79], in series [1], the “toxicity (compound concentration needed to induce greater than 50 percent of cell loss)” value was “+ (cell loss of greater than 50 percent at a concentration that equals or is greater than 25 μM was represented as)”. Further, in series [2], the “efficacy (minimal compound concentration needed to increase TFEB nuclear/cytosol ratio by 25%)” value is “+ (“+” equals >25 μM)”.

Regarding `c1cnc2nc(-c3ccncc3)nc(Nc3ccc4[nH]ncc4c3)c2c1` [Compound 80], the “toxicity (compound concentration needed to induce greater than 50 percent of cell loss)” value in series [1] is given as “+ (cell loss of greater than 50 percent at a concentration that equals or is greater than 25 μM was represented as)”. The “efficacy (minimal compound concentration needed to increase TFEB nuclear/cytosol ratio by 25%)” value in series [2] was “++ (“++” equals between ≤25 μM and >1 μM)”.

As to `c1cnc2nc(-c3ccncc3)nc(Nc3ccc4[nH]ccc4c3)c2c1` [Compound 81], the “toxicity (compound concentration needed to induce greater than 50 percent of cell loss)” value in series [1] is “++ (cell loss of greater than 50 percent at a concentration less than 25 μM and greater than 1 μM was represented as)”. In series [2], the “efficacy (minimal compound concentration needed to increase TFEB nuclear/cytosol ratio by 25%)” value was “+++ (“+++” equals ≤1 μM)”.

`Fc1cccc(Nc2nc(-c3ccncc3)nc3ncccc23)c1` [Compound 82]: the “toxicity (compound concentration needed to induce greater than 50 percent of cell loss)” value in series [1] is given as “+ (cell loss of greater than 50 percent at a concentration that equals or is greater than 25 μM was represented as)”. Also, in series [2], the “efficacy (minimal compound concentration needed to increase TFEB nuclear/cytosol ratio by 25%)” value was “+++ (“+++” equals ≤1 μM)”.

With `c1cnc2c(Nc3ccc4[nH]ccc4c3)nc(-c3ccncc3)nc2c1` [Compound 83], in series [1], the “toxicity (compound concentration needed to induce greater than 50 percent of cell loss)” value is reported as “+ (cell loss of greater than 50 percent at a concentration that equals or is greater than 25 μM was represented as)”. Moreover, in series [2], the “efficacy (minimal compound concentration needed to increase TFEB nuclear/cytosol ratio by 25%)” value is “++ (“++” equals between ≤25 μM and >1 μM)”.

Turning to `c1cc(-c2nc(Nc3ccc4[nH]ccc4c3)c3cnccc3n2)ccn1` [Compound 84], in series [1], the “toxicity (compound concentration needed to induce greater than 50 percent of cell loss)” value is “+ (cell loss of greater than 50 percent at a concentration that equals or is greater than 25 μM was represented as)”. For the same molecule, the “efficacy (minimal compound concentration needed to increase TFEB nuclear/cytosol ratio by 25%)” value in series [2] is “+++ (“+++” equals ≤1 μM)”.

With `c1cc(-c2nc(Nc3ccc4[nH]ncc4c3)c3cnccc3n2)ccn1` [Compound 85], in series [1], the “toxicity (compound concentration needed to induce greater than 50 percent of cell loss)” value is recorded as “+ (cell loss of greater than 50 percent at a concentration that equals or is greater than 25 μM was represented as)”. Also, the “efficacy (minimal compound concentration needed to increase TFEB nuclear/cytosol ratio by 25%)” value in series [2] is listed as “+++ (“+++” equals ≤1 μM)”.

As to `Cc1nc2cc(C)c(Nc3nc(-c4ccncc4)nc4ccccc34)cc2s1` [Compound 86], in series [1], the “toxicity (compound concentration needed to induce greater than 50 percent of cell loss)” value is “+++ (cell loss of greater than 50 percent at a concentration that equals or is less than 1 μM was represented as “+++.”)”. In series [2], the “efficacy (minimal compound concentration needed to increase TFEB nuclear/cytosol ratio by 25%)” value was “+++ (“+++” equals ≤1 μM)”.

With `N#Cc1nc2ccc(Nc3nc(-c4ccncc4)nc4ccccc34)cc2s1` [Compound 87], in series [1], the “toxicity (compound concentration needed to induce greater than 50 percent of cell loss)” value is on record as “+ (cell loss of greater than 50 percent at a concentration that equals or is greater than 25 μM was represented as)”. Besides, the “efficacy (minimal compound concentration needed to increase TFEB nuclear/cytosol ratio by 25%)” value in series [2] is “+ (“+” equals >25 μM)”.

With `CC(C)(C)OC(=O)N1CC=C(c2nc(Nc3ccc4[nH]ccc4c3)c3ccccc3n2)CC1` [Compound 88], in series [1], the “toxicity (compound concentration needed to induce greater than 50 percent of cell loss)” value was “+ (cell loss of greater than 50 percent at a concentration that equals or is greater than 25 μM was represented as)”. Also, the “efficacy (minimal compound concentration needed to increase TFEB nuclear/cytosol ratio by 25%)” value in series [2] is reported as “+ (“+” equals >25 μM)”.

Turning to `c1ccc2c(Nc3ccc4[nH]ncc4c3)nc(-c3cc[nH]c3)nc2c1` [Compound 89], in series [1], the “toxicity (compound concentration needed to induce greater than 50 percent of cell loss)” value was “++ (cell loss of greater than 50 percent at a concentration less than 25 μM and greater than 1 μM was represented as)”. In addition, the “efficacy (minimal compound concentration needed to increase TFEB nuclear/cytosol ratio by 25%)” value in series [2] was “++ (“++” equals between ≤25 μM and >1 μM)”.

As to `CCc1nc2ccc(Nc3nc(-c4ccncc4)nc4ccccc34)cc2s1` [Compound 90], in series [1], the “toxicity (compound concentration needed to induce greater than 50 percent of cell loss)” value is given as “+ (cell loss of greater than 50 percent at a concentration that equals or is greater than 25 μM was represented as)”. The “efficacy (minimal compound concentration needed to increase TFEB nuclear/cytosol ratio by 25%)” value in series [2] is listed as “+++ (“+++” equals ≤1 μM)”.

For `c1ccc2c(Nc3ccc4nc(C5CC5)sc4c3)nc(-c3ccncc3)nc2c1` [Compound 91], the “toxicity (compound concentration needed to induce greater than 50 percent of cell loss)” value in series [1] is “+ (cell loss of greater than 50 percent at a concentration that equals or is greater than 25 μM was represented as)”. The “efficacy (minimal compound concentration needed to increase TFEB nuclear/cytosol ratio by 25%)” value in series [2] was “+++ (“+++” equals ≤1 μM)”.

With `FC(F)c1nc2ccc(Nc3nc(-c4ccncc4)nc4ccccc34)cc2s1` [Compound 92], in series [1], the “toxicity (compound concentration needed to induce greater than 50 percent of cell loss)” value is “+ (cell loss of greater than 50 percent at a concentration that equals or is greater than 25 μM was represented as)”. Moreover, the “efficacy (minimal compound concentration needed to increase TFEB nuclear/cytosol ratio by 25%)” value in series [2] is “++ (“++” equals between ≤25 μM and >1 μM)”.

Regarding `CC(C)(C)c1nc2ccc(Nc3nc(-c4ccncc4)nc4ccccc34)cc2s1` [Compound 93], in series [1], the “toxicity (compound concentration needed to induce greater than 50 percent of cell loss)” value is listed as “+ (cell loss of greater than 50 percent at a concentration that equals or is greater than 25 μM was represented as)”. Further, the “efficacy (minimal compound concentration needed to increase TFEB nuclear/cytosol ratio by 25%)” value in series [2] was “+ (“+” equals >25 μM)”.

As for `CC(C)c1nc2ccc(Nc3nc(-c4ccncc4)nc4ccccc34)cc2s1` [Compound 94], in series [1], the “toxicity (compound concentration needed to induce greater than 50 percent of cell loss)” value is given as “+ (cell loss of greater than 50 percent at a concentration that equals or is greater than 25 μM was represented as)”. In addition, the “efficacy (minimal compound concentration needed to increase TFEB nuclear/cytosol ratio by 25%)” value in series [2] is “+++ (“+++” equals ≤1 μM)”.

Regarding `Cc1nc2cc(Nc3nc(-c4ccncc4)nc4ccccc34)ccc2s1` [Compound 95], in series [1], the “toxicity (compound concentration needed to induce greater than 50 percent of cell loss)” value was “+ (cell loss of greater than 50 percent at a concentration that equals or is greater than 25 μM was represented as)”. Further, the “efficacy (minimal compound concentration needed to increase TFEB nuclear/cytosol ratio by 25%)” value in series [2] was “+ (“+” equals >25 μM)”.

In the case of `FC(F)(F)c1nc2ccc(Nc3nc(-c4ccncc4)nc4ccccc34)cc2o1` [Compound 96], the “toxicity (compound concentration needed to induce greater than 50 percent of cell loss)” value in series [1] is listed as “+ (cell loss of greater than 50 percent at a concentration that equals or is greater than 25 μM was represented as)”. The “efficacy (minimal compound concentration needed to increase TFEB nuclear/cytosol ratio by 25%)” value in series [2] is on record as “+ (“+” equals >25 μM)”.

For `c1ccc2c(Nc3cccc4[nH]ccc34)nc(-c3ccncc3)nc2c1` [Compound 97], the “toxicity (compound concentration needed to induce greater than 50 percent of cell loss)” value in series [1] is reported as “+ (cell loss of greater than 50 percent at a concentration that equals or is greater than 25 μM was represented as)”. Besides, in series [2], the “efficacy (minimal compound concentration needed to increase TFEB nuclear/cytosol ratio by 25%)” value was “+++ (“+++” equals ≤1 μM)”.

As to `c1cc(Nc2nc(-c3ccncc3)nc3ccccc23)c2[nH]ccc2c1` [Compound 98], the “toxicity (compound concentration needed to induce greater than 50 percent of cell loss)” value in series [1] was “+ (cell loss of greater than 50 percent at a concentration that equals or is greater than 25 μM was represented as)”. The “efficacy (minimal compound concentration needed to increase TFEB nuclear/cytosol ratio by 25%)” value in series [2] is “+++ (“+++” equals ≤1 μM)”.

Take `c1ccc2c(Nc3cccc4[nH]ncc34)nc(-c3ccncc3)nc2c1` [Compound 99]: in series [1], the “toxicity (compound concentration needed to induce greater than 50 percent of cell loss)” value is recorded as “+ (cell loss of greater than 50 percent at a concentration that equals or is greater than 25 μM was represented as)”. In series [2], the “efficacy (minimal compound concentration needed to increase TFEB nuclear/cytosol ratio by 25%)” value is listed as “+++ (“+++” equals ≤1 μM)”.

In the case of `c1cc(Nc2nc(-c3ccncc3)nc3ccccc23)c2[nH]ncc2c1` [Compound 100], the “toxicity (compound concentration needed to induce greater than 50 percent of cell loss)” value in series [1] is “+ (cell loss of greater than 50 percent at a concentration that equals or is greater than 25 μM was represented as)”. Moreover, the “efficacy (minimal compound concentration needed to increase TFEB nuclear/cytosol ratio by 25%)” value in series [2] is “+ (“+” equals >25 μM)”.
